Measurements published in patent US8481752B2, “Fluorescent imaging with substituted cyanine dyes” (Li-Cor, Inc., priority 2009, dated 2013).

What was measured:
[1] = Photostability on nitrocellulose under repeated Odyssey scans; type: physicochemical; settings: for relative fluorescence with additional scans: as GAR conjugates on nitrocellulose, normalized to first scan, 100 scans
Experimental: The photostability of compound 8 was compared to that of Alexa Fluor 680 and IRDye 700DX. IRDye 700DX is one of the most photostable 700 nm fluorescent dyes known. Test samples were prepared by spotting equimolar amounts of dye-labeled conjugates (i.e., goat anti-rabbit (GAR) secondary antibodies labeled with the appropriate dye) onto nitrocellulose membrane. The membrane was then scanned repeatedly on an Odyssey Infrared Imager, so that the prolonged exposure of the dyes to the laser source induced some photodegradation. The signal intensity for each dye was normalized to the signal in the first scan for that dye (FIG. 9A-B).

[2] = Water solubility of the dye; type: physicochemical

| resistance to photodegradation ([1]; as GAR conjugate) | relative fluorescence with additional scans [1] | water solubility [2] | Compound |
| --- | --- | --- | --- |
| good resistance to photodegradation | decreased slightly | highly water-soluble | CC1(C)C(/C=C/C(=C/C=C2/N(CCCS(=O)(=O)O)c3ccc4c(S(=O)(=O)[O-])cc(S(=O)(=O)O)cc4c3C2(C)C)c2cccc(CCCCC(=O)O)c2)=[N+](CCCS(=O)(=O)O)c2ccc3c(S(=O)(=O)O)cc(S(=O)(=O)O)cc3c21 [Compound 8, Sodium 2-((1E,3Z,5E)-3-(3-(4-Carboxybutyl)phenyl)-5-(1,1-dimethyl-6,8-disulfonato-3-(3-sulfonatopropyl)-1H-benzo[e]indol-2(3H)-ylidene)penta-1,3-dienyl)-1,1-dimethyl-3-(3-sulfonatopropyl)-1H-benzo[e]indolium-6,8-disulfonate] |
|  | essentially unchanged |  | C[Si](C)(CCC[N+](CCCS(=O)(=O)[O-])(CCCS(=O)(=O)[O-])CCCS(=O)(=O)[O-])O[Si]1(O[Si](C)(C)CCC[N+](CCCS(=O)(=O)[O-])(CCCS(=O)(=O)[O-])CCCS(=O)(=O)[O-])n2c3c4ccccc4c2N=C2N=C(N=c4c5ccccc5c(n41)=NC1=NC(=N3)c3ccccc31)c1cccc(OCCCOC(=O)NCCCCCC(=O)ON3C(=O)CCC3=O)c12.[Na+].[Na+].[Na+].[Na+] (stereo not shown) [IRDye 700DX] |
